What all share (assay): NCI tumour cell line growth inhibition, 48 h
For assay [1], the system named is 786-0 renal.
Assay [2] deals with BT-549 breast.
Assay [3] deals with DU-145 prostate.
Assay [4] deals with EKVX NSCLC.
In assay [5] the test system is HCT-116 colon.
Assay [6] deals with HL-60(TB) leukemia.
Assay [7] has as its system HOP-62 NSCLC.
The test system of assay [8] is PC-3 prostate.
In assay [9] the test system is SF-539 CNS.
Assay [10] has as its system T-47D breast.

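How tested: cells in 96-well plates exposed to compound for 48 hours at five concentrations. Abbreviation: GI50, concentration required for 50% inhibition of growth. TGI is the concentration that stops growth completely.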

As to `COc1ccc2nc(-c3ccccc3)cc(Nc3ccc(/C(C)=N/O)cc3)c2c1`, the GI50 in [1] is 2.09 µM; in assay [2], 2.07 µM; in assay [3] it was 2.8 µM; in assay [4] it was 3.02 µM; in assay [5], 1.52 µM; in assay [6] it was 2.88 µM. Moreover, the GI50 in assay [7] was 2.14 µM; in assay [8], 6.36 µM; in assay [9], 0.35 µM; in assay [10] it was 6.18 µM. In addition, the TGI in assay [1] is 3.7 µM; in assay [2], 4.76 µM; in [3], above 23 µM; in [4], above 100 µM; in assay [5], 2.85 µM; in [6] it was above 100 µM. In addition, the TGI in assay [7] is 5.06 µM; in [8], above 64.8 µM; in [9], 3.05 µM; in assay [10], above 100 µM.

In the case of `O=C(Cc1ccc(/C=C/C(=O)c2ncc[nH]2)cc1)Nc1ccc(Br)cc1`, the GI50 is 0.946 µM in assay [1]; 1.55 µM in assay [2]; 1.1 µM in assay [3]; 4.58 µM in [4]; 0.847 µM in assay [5]; 2.78 µM in [6]. The GI50 in assay [7] was 2.49 µM; in assay [8], 2.51 µM; in [9], 1.47 µM; in [10], 3.82 µM. Also, the TGI in assay [1] was 3.13 µM; in assay [2], 4.04 µM; in assay [3], 4.89 µM; in [4] it was above 16.7 µM; in assay [5] it was 2.54 µM; in assay [6], 13.9 µM. Moreover, the TGI in assay [7] is 5.73 µM; in [8], 10.2 µM; in assay [9] it was 3.56 µM; in [10] it was above 16.7 µM.

On to `CC(C)[C@@H](C(=O)O[C@@H]1/C=C/C(=O)O[C@@H](C)CCC/C=C/[C@@H]2C[C@H](O)C[C@H]21)[N+](C)(C)C`, for which the GI50 in assay [1], in [2], in assay [3], in assay [4], in assay [5] and in assay [6] was above 100 µM throughout. In addition, the GI50 in assay [7], in [8], in [9] and in assay [10] was above 100 µM throughout. Moreover, the TGI in [1], in assay [2], in assay [3], in assay [4], in assay [5] and in assay [6] was above 100 µM each time. The TGI in assay [7], in assay [8], in assay [9] and in assay [10] was above 100 µM throughout.

As for `CC12C=CC(C)(O1)C1C2c2ccccc2S1(=O)=O` (stereo not given), the GI50 in assay [1] was above 100 µM; in [2], 21.6 µM; in assay [3] it was 50.3 µM; in [4], 92.9 µM; in [5] it was 47.9 µM; in [6], above 100 µM. Further, the GI50 in assay [7] was above 100 µM; in [8], 66.8 µM; in assay [9], 85.4 µM; in [10], 95.5 µM. The TGI in assay [1] is above 100 µM; in assay [2] it was 81.6 µM; in assay [3], above 100 µM; in [4] it was above 100 µM; in assay [5], above 100 µM; in assay [6] it was above 100 µM. Also, the TGI in assay [7], in assay [8], in [9] and in [10] was above 100 µM in each case.

On to `O=C1C[C@@H](c2ccccc2)NCCCCN(O)CCCN1`, for which the TGI in [1], in [2], in assay [3], in assay [4], in assay [5] and in assay [6] was above 100 µM each time. For the same compound, the TGI in [7], in assay [8], in assay [9] and in [10] was above 100 µM each time.

In the case of `COc1cc2c(cc1OCCCCCCNC(=O)c1cc3ccccc3[nH]1)N=CC1CCCN1C2=O` (stereo not given), the GI50 was above 100 µM in assay [1]; 21.7 µM in assay [2]; 21.6 µM in assay [3]; 14.4 µM in [4]; 45.6 µM in assay [5]; 41.2 µM in assay [6]. The GI50 is 50.2 µM in assay [7], 36 µM in assay [8], 17 µM in assay [9] and 15.4 µM in [10]. In addition, the TGI was above 100 µM in [1]; 74.2 µM in assay [2]; 72.1 µM in [3]; 65.4 µM in assay [4]; above 100 µM in assay [5]; above 100 µM in assay [6]. In addition, the TGI in [7] is above 100 µM; in assay [8], above 100 µM; in [9] it was 33.4 µM; in [10], above 100 µM.

As to `NC(=O)Nc1ccc2ncnc(Nc3ccc(Cl)cc3)c2c1`, the GI50 in [1] is 19.3 µM; in [2], 18.9 µM; in assay [3], 4.21 µM; in [4], 0.369 µM; in [5], 24.9 µM; in assay [6] it was 25.9 µM. Besides, the GI50 in [7] is 26.7 µM; in assay [8], 19.4 µM; in assay [9], 30.7 µM; in assay [10] it was 10.2 µM. In addition, the TGI in assay [1] was 91.7 µM; in [2] it was 67.4 µM; in [3], above 100 µM; in [4], 11.9 µM; in [5], 98.2 µM; in assay [6] it was 64.4 µM. The TGI in assay [7] was above 91.9 µM; in assay [8], above 96.2 µM; in [9], above 100 µM; in assay [10], above 85.1 µM.

On to `N#Cc1cc2cc3c4c(c2oc1=O)CCCN4CCC3`, for which the TGI in [1], in assay [2], in assay [3], in [4], in assay [5] and in assay [6] was above 100 µM in each case. Further, the TGI in assay [7], in [8], in assay [9] and in assay [10] was above 100 µM each time.

Source of the values: PubChem BioAssay (NCI).
